# Source: EP2818472A1, “Imidazo[4,5-c]pyridine and pyrrolo[3,2-c]pyridine compounds as G-protein-coupled receptor kinase 5 (GRK5) modulators” (Max-Planck-Gesellschaft zur Förderung der Wissenschaften …, priority 2013, dated 2014)
# Tested on: beta-TC6 cells
# Assay: Insulin HTRF assay (relative activity Ar) in beta-TC6 cells
# Format: cell-based, mouse
# Conditions: Mus musculus, Beta-TC6, 4 h, insulin HTRF, supernatant of beta-TC6 cells, incubation with test compound at 37°C for 2, 3, 4h; read-out: Ar (relative activity)
# In short: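 beta-TC6 cells (15k/well, seeded 24 or 48 h) washed, then exposed to compound in induction buffer (0.5% DMSO final) for 2, 3 or 4 h at 37°C.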
row,SMILES,Emax
1,"COc1ccc(Nc2nccc3c2cc(-c2ccsc2)n3C)cc1OC [Compound 274, N-(3,4-dimethoxyphenyl)-1-methyl-2-(3-thienyl)pyrrolo[3,2-c]pyridin-4-amine]",30 to 50%
2,"COc1ccc(Nc2nccc3c2cc(-c2ccsc2)n3C)cn1 [Compound 275, N-(6-methoxy-3-pyridyl)-1-methyl-2-(3-thienyl)pyrrolo[3,2-c]pyridin-4-amine]",50 to 100%
3,"Cn1c(-c2ccsc2)cc2c(Nc3cccnc3)nccc21 [Compound 276, 1-methyl-N-(3-pyridyl)-2-(3-thienyl)pyrrolo[3,2-c]pyridin-4-amine]",30 to 50%
4,"CN(C)c1cccc(Nc2nccc3c2cc(-c2ccsc2)n3C)c1 [Compound 277, N1,N1-dimethyl-N3-[1-methyl-2-(3-thienyl)pyrrolo[3,2-c]pyridin-4-yl]benzene-1,3-diamine]",30 to 50%
5,"Cn1c(-c2ccsc2)cc2c(Nc3ccncc3)nccc21 [Compound 278, 1-methyl-N-(4-pyridyl)-2-(3-thienyl)pyrrolo[3,2-c]pyridin-4-amine]",50 to 100%
6,"COc1ccc(Nc2nccc3c2cc(-c2ccsc2)n3C)cc1 [Compound 279, N-(4-methoxyphenyl)-1-methyl-2-(3-thienyl)pyrrolo[3,2-c]pyridin-4-amine]",30 to 50%
7,"Cn1c(-c2ccsc2)cc2c(Nc3ccccn3)nccc21 [Compound 280, 1-methyl-N-(2-pyridyl)-2-(3-thienyl)pyrrolo[3,2-c]pyridin-4-amine]",30 to 50%
8,"Cn1c(-c2ccsc2)cc2c(Nc3ccc(C#N)cc3)nccc21 [Compound 281, 4-[[1-methyl-2-(3-thienyl)pyrrolo[3,2-c]pyridin-4-yl]amino]benzonitrile]",0 to 30%
9,"Cn1c(-c2ccsc2)cc2c(Nc3cccc(S(C)(=O)=O)c3)nccc21 [Compound 282, 1-methyl-N-(3-methylsulfonylphenyl)-2-(3-thienyl)pyrrolo[3,2-c]pyridin-4-amine]",30 to 50%
10,"Cn1c(-c2ccsc2)cc2c(Nc3ccc4c(c3)OCO4)nccc21 [Compound 283, N-(1,3-benzodioxol-5-yl)-1-methyl-2-(3-thienyl)pyrrolo[3,2-c]pyridin-4-amine]",30 to 50%
11,"COc1ccc(Nc2nccc3c2cc(-c2ccsc2)n3C)cc1O [Compound 284, 2-methoxy-5-[[1-methyl-2-(3-thienyl)pyrrolo[3,2-c]pyridin-4-yl]amino]phenol]",50 to 100%
12,"Cn1c(-c2ccsc2)cc2c(Nc3ccncn3)nccc21 [Compound 285, 1-methyl-N-pyrimidin-4-yl-2-(3-thienyl)pyrrolo[3,2-c]pyridin-4-amine]",50 to 100%
13,"Cn1c(-c2ccsc2)cc2c(Nc3cccc(NS(C)(=O)=O)c3)nccc21 [Compound 286, N-[3-[[1-methyl-2-(3-thienyl)pyrrolo[3,2-c]pyridin-4-yl]amino]phenyl]methanesulfonamide]",50 to 100%
14,"CC(=O)Nc1cccc(Nc2nccc3c2cc(-c2ccsc2)n3C)c1 [Compound 287, N-[3-[[1-methyl-2-(3-thienyl)pyrrolo[3,2-c]pyridin-4-yl]amino]phenyl]acetamide]",50 to 100%
15,"CC(=O)c1cccc(Nc2nccc3c2cc(-c2ccsc2)n3C)c1 [Compound 288, 1-[3-[[1-methyl-2-(3-thienyl)pyrrolo[3,2-c]pyridin-4-yl]amino]phenyl]ethanone]",30 to 50%
16,"Cn1c(-c2ccsc2)cc2c(Nc3ccc(S(C)(=O)=O)cc3)nccc21 [Compound 289, 1-methyl-N-(4-methylsulfonylphenyl)-2-(3-thienyl)pyrrolo[3,2-c]pyridin-4-amine]",30 to 50%
17,"COc1cc(OC)cc(-c2cc3c(Nc4ccc(C(N)=O)cc4)nccc3[nH]2)c1 [Compound 290, 4-[[2-(3,5-dimethoxyphenyl)-1H-pyrrolo[3,2-c]pyridin-4-yl]amino]benzamide]",50 to 100%
18,"COc1cc(OC)cc(-c2cc3c(Nc4ccncc4)nccc3[nH]2)c1 [Compound 291, 2-(3,5-dimethoxyphenyl)-N-(4-pyridyl)-1H-pyrrolo[3,2-c]pyridin-4-amine]",50 to 100%
19,"COc1cc(OC)cc(-c2cc3c(Nc4cccc(NS(C)(=O)=O)c4)nccc3[nH]2)c1 [Compound 292, N-[3-[[2-(3,5-dimethoxyphenyl)-1H-pyrrolo[3,2-c]pyridin-4-yl]amino]phenyl]methanesulfonamide]",30 to 50%
20,"COc1cc(OC)cc(-c2cc3c(Nc4ccc(S(C)(=O)=O)cc4)nccc3[nH]2)c1 [Compound 293, 2-(3,5-dimethoxyphenyl)-N-(4-methylsulfonylphenyl)-1H-pyrrolo[3,2-c]pyridin-4-amine]",50 to 100%
21,"COc1ccccc1-c1cc2c(Nc3ccc(C(N)=O)cc3)nccc2[nH]1 [Compound 294, 4-[[2-(2-methoxyphenyl)-1H-pyrrolo[3,2-c]pyridin-4-yl]amino]benzamide]",50 to 100%
22,"COc1ccccc1-c1cc2c(Nc3ccncc3)nccc2[nH]1 [Compound 295, 2-(2-methoxyphenyl)-N-(4-pyridyl)-1H-pyrrolo[3,2-c]pyridin-4-amine]",50 to 100%

row,SMILES,Emax
1,"COc1ccccc1-c1cc2c(Nc3ccc4c(c3)OCO4)nccc2[nH]1 [Compound 296, N-(1,3-benzodioxol-5-yl)-2-(2-methoxyphenyl)-1H-pyrrolo[3,2-c]pyridin-4-amine]",30 to 50%
2,"COc1ccccc1-c1cc2c(Nc3cccc(O)c3)nccc2[nH]1 [Compound 297, 3-[[2-(2-methoxyphenyl)-1H-pyrrolo[3,2-c]pyridin-4-yl]amino]phenol]",30 to 50%
3,"COc1ccccc1-c1cc2c(Nc3cccc(NS(C)(=O)=O)c3)nccc2[nH]1 [Compound 298, N-[3-[[2-(2-methoxyphenyl)-1H-pyrrolo[3,2-c]pyridin-4-yl]amino]phenyl]methanesulfonamide]",50 to 100%
4,"COc1ccccc1-c1cc2c(Nc3cccc(NC(C)=O)c3)nccc2[nH]1 [Compound 299, N-[3-[[2-(2-methoxyphenyl)-1H-pyrrolo[3,2-c]pyridin-4-yl]amino]phenyl]acetamide]",50 to 100%
5,"COc1ccccc1-c1cc2c(Nc3ccc(S(C)(=O)=O)cc3)nccc2[nH]1 [Compound 300, 2-(2-methoxyphenyl)-N-(4-methylsulfonylphenyl)-1H-pyrrolo[3,2-c]pyridin-4-amine]",50 to 100%
6,"COc1ccccc1-c1cc2c(Nc3ccc(NC(C)=O)cc3)nccc2n1C [Compound 301, N-[4-[[2-(2-methoxyphenyl)-1-methyl-pyrrolo[3,2-c]pyridin-4-yl]amino]phenyl]acetamide]",50 to 100%
7,"COc1ccccc1-c1cc2c(Nc3cccnc3)nccc2n1C [Compound 303, 2-(2-methoxyphenyl)-1-methyl-N-(3-pyridyl)pyrrolo[3,2-c]pyridin-4-amine]",30 to 50%
8,"COc1ccccc1-c1cc2c(Nc3ccccn3)nccc2n1C [Compound 304, 2-(2-methoxyphenyl)-1-methyl-N-(2-pyridyl)pyrrolo[3,2-c]pyridin-4-amine]",30 to 50%
9,"COc1cccc(-c2cc3c(Nc4ccc(NC(C)=O)cc4)nccc3[nH]2)c1 [Compound 306, N-[4-[[2-(3-methoxyphenyl)-1H-pyrrolo[3,2-c]pyridin-4-yl]amino]phenyl]acetamide]",50 to 100%
10,"COc1cccc(-c2cc3c(Nc4ccc(OC)nc4)nccc3[nH]2)c1 [Compound 307, 2-(3-methoxyphenyl)-N-(6-methoxy-3-pyridyl)-1H-pyrrolo[3,2-c]pyridin-4-amine]",50 to 100%
11,"COc1cccc(-c2cc3c(Nc4cccnc4)nccc3[nH]2)c1 [Compound 308, 2-(3-methoxyphenyl)-N-(3-pyridyl)-1H-pyrrolo[3,2-c]pyridin-4-amine]",50 to 100%
12,"COc1cccc(-c2cc3c(Nc4ccccc4)nccc3[nH]2)c1 [Compound 309, 2-(3-methoxyphenyl)-N-phenyl-1H-pyrrolo[3,2-c]pyridin-4-amine]",30 to 50%
13,"COc1cccc(-c2cc3c(Nc4ccc(N5CCN(C)CC5)cc4)nccc3[nH]2)c1 [Compound 310, 2-(3-methoxyphenyl)-N-[4-(4-methylpiperazin-1-yl)phenyl]-1H-pyrrolo[3,2-c]pyridin-4-amine]",50 to 100%
14,"COc1cccc(-c2cc3c(Nc4cccc(S(C)(=O)=O)c4)nccc3[nH]2)c1 [Compound 311, 2-(3-methoxyphenyl)-N-(3-methylsulfonylphenyl)-1H-pyrrolo[3,2-c]pyridin-4-amine]",50 to 100%
15,"COc1cccc(-c2cc3c(Nc4ccc(OC)c(O)c4)nccc3[nH]2)c1 [Compound 312, 2-methoxy-5-[[2-(3-methoxyphenyl)-1H-pyrrolo[3,2-c]pyridin-4-yl]amino]phenol]",50 to 100%
16,"COc1cccc(-c2cc3c(Nc4ccc(C(=O)N(C)C)cc4)nccc3[nH]2)c1 [Compound 313, 4-[[2-(3-methoxyphenyl)-1H-pyrrolo[3,2-c]pyridin-4-yl]amino]-N,N-dimethyl-benzamide]",> 100%
17,"Clc1cccc(-c2cc3c(Nc4cccnc4)nccc3[nH]2)c1 [Compound 315, 2-(3-chlorophenyl)-N-(3-pyridyl)-1H-pyrrolo[3,2-c]pyridin-4-amine]",30 to 50%
18,"Cn1c(-c2cccc(Cl)c2)cc2c(Nc3ccncn3)nccc21 [Compound 316, 2-(3-chlorophenyl)-1-methyl-N-pyrimidin-4-yl-pyrrolo[3,2-c]pyridin-4-amine]",30 to 50%
19,"Oc1ccc(Nc2nccc3[nH]c(-c4ccccc4)cc23)cc1 [Compound 317, 4-[(2-phenyl-1H-pyrrolo[3,2-c]pyridin-4-yl)amino]phenol]",50 to 100%
20,"NC(=O)c1ccc(Nc2nccc3[nH]c(-c4ccccc4)cc23)cc1 [Compound 318, 4-[(2-phenyl-1H-pyrrolo[3,2-c]pyridin-4-yl)amino]benzamide]",> 100%
21,"c1ccc(-c2cc3c(Nc4cccnc4)nccc3[nH]2)cc1 [Compound 319, 2-phenyl-N-(3-pyridyl)-1H-pyrrolo[3,2-c]pyridin-4-amine]",50 to 100%
22,"CN1CCN(c2ccc(Nc3nccc4[nH]c(-c5ccccc5)cc34)cc2)CC1 [Compound 320, N-[4-(4-methylpiperazin-1-yl)phenyl]-2-phenyl-1H-pyrrolo[3,2-c]pyridin-4-amine]",30 to 50%
